Experimental findings from PMC3863987 (Journal of medicinal chemistry, 2012) are described below.

The target in one series is T1, recombinant P. vivax NMT (Plasmodium vivax, UniProt A5K1A2).
T1 sequence (A5K1A2 1-410): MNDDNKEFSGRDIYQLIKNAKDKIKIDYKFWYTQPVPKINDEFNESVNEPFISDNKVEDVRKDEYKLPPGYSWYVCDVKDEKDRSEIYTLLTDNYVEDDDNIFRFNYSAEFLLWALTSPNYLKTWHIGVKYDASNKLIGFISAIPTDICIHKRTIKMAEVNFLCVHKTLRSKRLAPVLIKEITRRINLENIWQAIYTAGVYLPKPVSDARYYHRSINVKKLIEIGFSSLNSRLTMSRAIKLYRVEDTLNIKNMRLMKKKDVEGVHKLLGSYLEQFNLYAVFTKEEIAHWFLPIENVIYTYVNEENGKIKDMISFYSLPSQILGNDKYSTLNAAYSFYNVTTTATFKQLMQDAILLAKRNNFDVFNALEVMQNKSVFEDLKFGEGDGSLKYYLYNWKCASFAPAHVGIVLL
The series can be described thus: Fluorogenic NMT enzyme assay, P. vivax NMT. It counts as biochemical.

The nature of another series: Solubility. It counts as physicochemical. The conditions noted are these: ethyl ester in position 3 in place of the aliphatic chain.
Substrate in series [1]: C[C@H](NC(=O)[C@H](CC(=O)O)NC(=O)[C@H](CCCCN)NC(=O)[C@@H]1CCCN1C(=O)[C@H](CCCCN)NC(=O)[C@H](CO)NC(=O)[C@H](CCCCN)NC(=O)[C@H](CC(N)=O)NC(=O)[C@H](CO)NC(=O)CN)C(=O)N[C@@H](CO)C(=O)N[C@@H](CCC(N)=O)C(=O)N[C@@H](CCCNC(=N)N)C(=O)N[C@@H](CCCNC(=N)N)C(=O)N[C@@H](CCCNC(=N)N)C(N)=O
The series can be described thus: Fluorogenic NMT enzyme assay, P. vivax NMT. It counts as biochemical, Plasmodium vivax. The following applies: other: peptide substrate for the PvNMT assay, in assay conditions.

Broadly, the Km is the substrate concentration at which the rate is half of its maximum.

`CCCCc1c(C)nc2ccc(OC)cc2c1SCCC#N.Cl` [Compound 1, 3-butyl-4-((2-cyanoethyl)thio)-6-methoxy-2-methyl-quinoline]: the “inhibitory activity against PvNMT (in words)” value at recombinant P. vivax NMT was “micromolar IC50”.
Turning to `CCOC(=O)c1cnc2ccc(OC)cc2c1SCCC#N` [Compound 7], the “solubility (in words)” value in “Solubility” is given as “greatly improved solubility”.
Take `CCOC(=O)c1c(C)nc2ccccc2c1NCC#N.Cl` [Compound 17]: the “inhibitory activity against PvNMT (in words)” value at recombinant P. vivax NMT is listed as “complete loss of activity”.

B1: recombinant P. vivax NMT (Plasmodium vivax Sal-1) (protein)
chain: MNDDNKEFSGRDIYQLIKNAKDKIKIDYKFWYTQPVPKINDEFNESVNEPFISDNKVEDVRKDEYKLPPGYSWYVCDVKDEKDRSEIYTLLTDNYVEDDDNIFRFNYSAEFLLWALTSPNYLKTWHIGVKYDASNKLIGFISAIPTDICIHKRTIKMAEVNFLCVHKTLRSKRLAPVLIKEITRRINLENIWQAIYTAGVYLPKPVSDARYYHRSINVKKLIEIGFSSLNSRLTMSRAIKLYRVEDTLNIKNMRLMKKKDVEGVHKLLGSYLEQFNLYAVFTKEEIAHWFLPIENVIYTYVNEENGKIKDMISFYSLPSQILGNDKYSTLNAAYSFYNVTTTATFKQLMQDAILLAKRNNFDVFNALEVMQNKSVFEDLKFGEGDGSLKYYLYNWKCASFAPAHVGIVLL
Consider B1, for which the Km in series [1] turned out to be 5.71 ± 0.6 µM.
